Experimental data taken from patent US9914730B2, “Azaquinazoline inhibitors of Atypical protein Kinase C” (Ignyta, Inc., priority 2012, dated 2018).
Where a name gives a salt, the structure may show the parent alone.

Target: T1, full-length human PKCι (Homo sapiens, UniProt P41743)
T1 construct: Recombinant, full-length human PKCι expressed in Sf21 insect cells is also commercially available; purchased; host or cells: Sf21 insect cells
T1 sequence (P41743 1-596): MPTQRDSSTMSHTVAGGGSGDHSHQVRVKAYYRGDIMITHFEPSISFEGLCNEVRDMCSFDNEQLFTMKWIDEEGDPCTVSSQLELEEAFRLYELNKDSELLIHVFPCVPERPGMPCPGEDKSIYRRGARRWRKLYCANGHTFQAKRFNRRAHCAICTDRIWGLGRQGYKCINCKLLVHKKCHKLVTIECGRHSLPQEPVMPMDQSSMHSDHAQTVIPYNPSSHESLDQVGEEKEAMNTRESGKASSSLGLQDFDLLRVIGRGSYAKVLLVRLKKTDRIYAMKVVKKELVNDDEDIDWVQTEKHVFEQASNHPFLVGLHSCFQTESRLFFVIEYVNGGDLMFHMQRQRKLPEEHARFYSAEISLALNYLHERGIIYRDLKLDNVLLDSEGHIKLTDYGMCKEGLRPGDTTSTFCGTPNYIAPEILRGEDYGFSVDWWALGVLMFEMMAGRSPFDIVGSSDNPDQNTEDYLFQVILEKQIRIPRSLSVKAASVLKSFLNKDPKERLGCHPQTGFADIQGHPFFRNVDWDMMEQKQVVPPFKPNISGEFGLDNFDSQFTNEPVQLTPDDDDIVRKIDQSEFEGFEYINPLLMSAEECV
Assay: PKCι IC50 IMAP assay, full-length PKCι at 150 μM ATP
Type: biochemical
Conditions: read-out: IC50 in IMAP assay against full length PKCi at 150 μM ATP
In short: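 Full-length human PKCι from Sf21 cells, typically 15 pM, with 100 nM 5FAM-PKCε pseudosubstrate peptide and 150 μM ATP (5× apparent KM), 60 min at room temperature, 4% DMSO. IMAP fluorescence polarisation read-out; inhibition normalised to no-compound and no-enzyme controls, IC50 from curve fit.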

IC50	SMILES
100 to 1000 nM	O[C@H]1Cc2ccccc2[C@H]1Nc1cc(-c2nc(N3CCNCC3)c3c(C4CC4)cncc3n2)ccn1 [Example 2142, (1R,2S)-1-[4-(5-Cyclopropyl-4-piperazin-1-yl-pyrido[3,4-d]pyrimidin-2-yl)-pyridin-2-ylamino]-indan-2-ol]
< 100 nM	C=C(C)c1cncc2nc(-c3ccncc3)nc(N3CCNCC3)c12 [Example 143, 5-Isopropenyl-4-piperazin-1-yl-2-pyridin-4-yl-pyrido[3,4-d]pyrimidine]
100 to 1000 nM	N#Cc1cccc(Nc2cc(-c3nc(N4CC[C@H](O)[C@H](O)C4)c4c(C5CC5)cncc4n3)ccn2)n1 (relative stereo) [Example 745, 6-{4-[5-Cyclopropyl-4-((cis)-3,4-dihydroxy-piperidin-1-yl)-pyrido[3,4-d]pyrimidin-2-yl]-pyridin-2-ylamino}-pyridine-2-carbonitrile]
< 100 nM	Cc1c2ccc(Nc3cc(-c4nc(N5CCNCC5)c5c(C6CC6)cncc5n4)ccn3)cc2nn1C [Example 493, [4-(5-Cyclopropyl-4-piperazin-1-yl-pyrido[3,4-d]pyrimidin-2-yl)-pyridin-2-yl]-(2,3-dimethyl-2H-indazol-6-yl)-amine]
< 100 nM	Cc1cccc(C)c1Nc1cc(-c2nc(N3CCNCC3)c3c(C4CC4)cncc3n2)ccn1 [Example 541, [4-(5-Cyclopropyl-4-piperazin-1-yl-pyrido[3,4-d]pyrimidin-2-yl)-pyridin-2-yl]-(2,6-dimethyl-phenyl)-amine]
< 100 nM	N#Cc1cccc(Nc2cc(-c3nc(N4CCNCC4)c4c(C5CC5)cncc4n3)ccn2)n1 [Example 746, 6-[4-(5-Cyclopropyl-4-piperazin-1-yl-pyrido[3,4-d]pyrimidin-2-yl)-pyridin-2-ylamino]-pyridine-2-carbonitrile]
< 100 nM	c1ccc(Nc2cc(-c3nc(N4CCCNCC4)c4c(C5CC5)cncc4n3)ccn2)cc1 [Example 632, [4-(5-Cyclopropyl-4-[1,4]diazepan-1-yl-pyrido[3,4-d]pyrimidin-2-yl)-pyridin-2-yl]-phenyl-amine]
< 100 nM	c1cc(Nc2cc(-c3nc(N4CCNCC4)c4c(C5CC5)cncc4n3)ccn2)cc(C2CC2)c1 [Example 734, (3-Cyclopropyl-phenyl)-[4-(5-cyclopropyl-4-piperazin-1-yl-pyrido[3,4-d]pyrimidin-2-yl)-pyridin-2-yl]-amine]
< 100 nM	NC(=O)c1ccc(Nc2cc(-c3nc(N4CCNCC4)c4c(C5CC5)cncc4n3)ccn2)nc1 [Example 844, 6-[4-(5-Cyclopropyl-4-piperazin-1-yl-pyrido[3,4-d]pyrimidin-2-yl)-pyridin-2-ylamino]-nicotinamide]
< 100 nM	COc1cc(Nc2cc(-c3nc(N4CCNCC4)c4c(C5CC5)cncc4n3)ccn2)c(F)cc1F [Example 628, [4-(5-Cyclopropyl-4-piperazin-1-yl-pyrido[3,4-d]pyrimidin-2-yl)-pyridin-2-yl]-(2,4-difluoro-5-methoxy-phenyl)-amine]
< 100 nM	N#Cc1ccnc(Nc2cc(-c3nc(N4CCNCC4)c4c(C5CC5)cncc4n3)ccn2)c1 [Example 265, 2-[4-(5-Cyclopropyl-4-piperazin-1-yl-pyrido[3,4-d]pyrimidin-2-yl)-pyridin-2-ylamino]-isonicotinonitrile]
< 100 nM	Fc1ccc(Cl)c(F)c1Nc1cc(-c2nc(N3CCNCC3)c3c(C4CC4)cncc3n2)ccn1 [Example 618, (3-Chloro-2,6-difluoro-phenyl)-[4-(5-cyclopropyl-4-piperazin-1-yl-pyrido[3,4-d]pyrimidin-2-yl)-pyridin-2-yl]-amine]
< 100 nM	COc1cncc2nc(-c3ccnc(Nc4cccc(OCC(N)=O)c4)c3)nc(N[C@@H]3CCNC3)c12 [Example 323, 2-(3-{4-[5-Methoxy-4-((R)-pyrrolidin-3-ylamino)-pyrido[3,4-d]pyrimidin-2-yl]-pyridin-2-ylamino}-phenoxy)-acetamide]
10000 to 40000 nM	NC(=O)N[C@H](CNc1nc(-c2ccncc2)nc2cnccc12)Cc1ccccc1 [Example 84, (1-phenyl-3-{[2-(pyridin-4-yl)pyrido[3,4-d]pyrimidin-4-yl]amino}propan-2-yl)urea]
< 100 nM	CC(C)(C)c1cc2c(-c3nc(N4CC[C@@H](O)C4)c4c(C5CC5)cncc4n3)ccnc2[nH]1 [Example 1250, (R)-1-[2-(2-tert-Butyl-1H-pyrrolo[2,3-b]pyridin-4-yl)-5-cyclopropyl-pyrido[3,4-d]pyrimidin-4-yl]-pyrrolidin-3-ol]
< 100 nM	COc1cncc2nc(-c3ccnc4[nH]ccc34)nc(N3CCN[C@@H](CO)C3)c12 [Example 1206, {(R)-4-[5-Methoxy-2-(1H-pyrrolo[2,3-b]pyridin-4-yl)-pyrido[3,4-d]pyrimidin-4-yl]-piperazin-2-yl}-methanol]
< 100 nM	c1cc(-c2nc(N3CCNCC3)c3c(C4CCC4)cncc3n2)c2cc(C3CCC3)[nH]c2n1 [Example 2147, 5-Cyclobutyl-2-(2-cyclobutyl-1H-pyrrolo[2,3-b]pyridin-4-yl)-4-piperazin-1-yl-pyrido[3,4-d]pyrimidine]
< 100 nM	Fc1cc(C2CC2)nc(F)c1Nc1cc(-c2nc(N3CCNCC3)c3c(C4CC4)cncc3n2)ccn1 [Example 724, (6-Cyclopropyl-2,4-difluoro-pyridin-3-yl)-[4-(5-cyclopropyl-4-piperazin-1-yl-pyrido[3,4-d]pyrimidin-2-yl)-pyridin-2-yl]-amine; bis-trifluoroacetic salt]
< 100 nM	c1ccc2c(Nc3cc(-c4nc(N5CCNCC5)c5c(C6CC6)cncc5n4)ccn3)cccc2c1 [Example 2059, [4-(5-Cyclopropyl-4-piperazin-1-yl-pyrido[3,4-d]pyrimidin-2-yl)-pyridin-2-yl]-naphthalen-1-yl-amine]
1000 to 10000 nM	N[C@H](CNc1nc(-c2ccncc2)nc2c(-c3ccc(-c4ccc(Cl)cc4)cc3)nccc12)Cc1ccccc1 [Example 107, N-[(2S)-2-amino-3-phenylpropyl]-8-[4-(4-chloro-phenyl)-phenyl]-2-(pyridin-4-yl)pyrido[3,4-d]pyrimidin-4-amine]
< 100 nM	FC1(F)CCC(Nc2cc(-c3nc(N4CCNCC4)c4c(C5CC5)cncc4n3)ccn2)CC1 [Example 510, [4-(5-Cyclopropyl-4-piperazin-1-yl-pyrido[3,4-d]pyrimidin-2-yl)-pyridin-2-yl]-(4,4-difluoro-cyclohexyl)-amine]
< 100 nM	CC(C)(C)c1cc2c(-c3nc(N4CCNCC4)c4c(Br)cncc4n3)ccnc2[nH]1 [Example 2120, 5-Bromo-2-(2-tert-butyl-1H-pyrrolo[2,3-b]pyridin-4-yl)-4-piperazin-1-yl-pyrido[3,4-d]pyrimidine]
< 100 nM	Clc1ncc(C2CC2)c2c(N3CCNCC3)nc(-c3ccnc4[nH]ccc34)nc12 [Example 1210, 8-Chloro-5-cyclopropyl-4-piperazin-1-yl-2-(1H-pyrrolo[2,3-b]pyridin-4-yl)-pyrido[3,4-d]pyrimidine]
< 100 nM	Fc1ccc(F)c2c1[nH]c1nccc(-c3nc(N4CCNCC4)c4c(C5CC5)cncc4n3)c12 [Example 2027, 4-(5-Cyclopropyl-4-piperazin-1-yl-pyrido[3,4-d]pyrimidin-2-yl)-5,8-difluoro-9H-pyrido[2,3-b]indole]
10000 to 40000 nM	COc1cncc2nc(-c3ccncc3)nc(N3CC[C@H](O)C3)c12 [Example 50, (3S)-1-[5-methoxy-2-(pyridin-4-yl)-pyrido[3,4-d]-pyrimidin-4-yl]-pyrrolidin-3-ol]
